≈ marks a conversion by molar mass, not a printed value.
Test system: P388 mouse leukemia cells
Assay: P388 mouse leukemia cell assay
Type: cell-based
Conditions: for minimal effective concentration: P388, 48 h, summary sentence on Table 1, mouse leukemia cells, read-out: good antitumor activity at concentrations of at least (against mouse leukemia cells); for IC50: P388 mouse leukemia cells, 48 hours, 37°, 10% CO2
Method: P388 mouse leukemia cells are grown in Dulbecco MEM medium with 10% horse serum, 4mM glutamine, and 20ug/ml gentamycin (Biologos, Inc.). Cells are incubated in 10% CO2 and subcultured 2 times per week.
1. Add compound to each well of a 24-well plate or tube and allow solvent to evaporate to dryness.
2. Add 2ml (1.2×10^5) cells to each well or tube and mix.
3. Incubate in 10% CO2 , at 37° for 48 hours.
4. Read platees with an inverted microscope, scoring activity from 1+ to 4+ as follows: ND (not detectable), >90%; 1+, 75-90%; 2+, 50-74%; 3+, 25-49%; 4+, <25% of control growth. Cell counts are performed on each tube and results are reported as percent of control. Alternatively, scoring may be expressed as IC50 which represents the minimum concentration of the composition required to inhibit 50% of the cell growth on the plate. […]

Row | Compound | minimal effective concentration [µg/mL] | IC50 [µg/mL]
1 | O=C1CCCN2C(CC1)CC13CN4CCCCC=CCCC(O)(C=C(c5nccc6c5[nH]c5ccccc56)C1CC4)C23 (stereo not shown) [Manzamine E] | ≥ 5 | 5 (≈ 8.85 µM)
2 | O=C1CCCN2[C@@H](CC1)C[C@]13CN4CCCC/C=C\CC[C@](O)(C=C(c5nccc6c5[nH]c5c(O)cccc56)C1CC4)[C@H]23 (stereo partly shown) [Manzamine F] | ≥ 5 | 5 (≈ 8.61 µM)
